A short description of data set [1]: Compound cytotoxicity, XTT-based colorimetric assay. Format: cell-based. Conditions: human. The gist of the method: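 Uninfected MT2 cells, antiviral-assay protocol without virus; XTT colorimetric readout day 4; CC50 reported.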
For orientation: Tetrazolium assays rely on reduction of a dye to a coloured formazan, in cell work by metabolically active cells.

In data set [2] the test system is recombinant NL4-3 virus (nef section replaced with Renilla luciferase gene) in MT-2 cells. The experiment in a line: HIV cell culture assay (antiviral activity, luciferase readout). Format: cell-based. As to conditions: Renilla, NL43, MT-2 cells infected for 4-5 days with recombinant NL4-3 Renilla luciferase virus. In outline: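 Antiviral EC50 derived from luciferase signal using the exponential median effect equation. Infection of MT-2 cells ran 4-5 days alongside serial dilutions of compound, with virus generated by proviral clone transfection of 293T cells.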

[3] abbreviates: uninfected MT2 cells, day 4, XTT, read-out: CC50.

Read-outs that look alike come from different tables or passages of the source.

As to `Cc1cc(C2CCC(F)(F)CC2)nc2nc([C@H](Cc3cc(F)cc(F)c3)NC(=O)Cn3nc(C4CC4)c4c3C[C@@H]3C[C@H]43)n(-c3ccc(Cl)c4c(NS(C)(=O)=O)nn(CCN5CCCC5)c34)c(=O)c12` (atropisomer, axis not shown; (P)) [Example 273, N-[(1S)-1-[(3P)-3-{4-chloro-3-methanesulfonamido-1-[2-(pyrrolidin-1-yl)ethyl]-1H-indazol-7-yl}-7-(4,4-difluorocyclohexyl)-5-methyl-4-oxo-3H,4H-pyrido[2,3-d]pyrimidin-2-yl]-2-(3,5-difluorophenyl)ethyl]-2-[(2S,4S)-9-cyclopropyl-7,8-diazatricyclo[4.3.0.0^2,^4]nona-1(6),8-dien-7-yl]acetamide], the CC50 (commonly the concentration giving 50% cytotoxicity) at 4 days in data set [1] (setting [3]) is greater than 50 nM. Further, the EC50 (commonly the concentration giving half of the maximal effect) in data set [2] came to 0.02 nM.

For `COCCCn1nc(NS(C)(=O)=O)c2c(Cl)ccc(-n3c([C@H](Cc4cc(F)cc(F)c4)NC(=O)Cn4nc(C(F)(F)F)c5c4C(F)(F)[C@@H]4C[C@H]54)nc4nc(C5CCC(F)(F)CC5)cc(C)c4c3=O)c21` (atropisomer, axis not shown; (P)) [Example 89, N-[(1S)-1-[(3P)-3-[4-chloro-3-methanesulfonamido-1-(3-methoxypropyl)-1H-indazol-7-yl]-7-(4,4-difluorocyclohexyl)-5-methyl-4-oxo-3H,4H-pyrido[2,3-d]pyrimidin-2-yl]-2-(3,5-difluorophenyl)ethyl]-2-[(2S,4R)-5,5-difluoro-9-(trifluoromethyl)-7,8-diazatricyclo[4.3.0.0^2,^4]nona-1(6),8-dien-7-yl]acetamide], in data set [1] (setting [3]), the CC50 at 4 days is greater than 50 nM. In addition, the EC50 in data set [2] is 0.014 nM.

`Cc1cc(C2CCC(F)(F)CC2)nc2nc([C@H](Cc3cc(F)cc(F)c3)NC(=O)Cn3nc(C4CC4)c4c3C[C@@H]3C[C@H]43)n(-c3ccc(Cl)c4c(NS(C)(=O)=O)nn(CCN5[C@@H]6CC[C@H]5CC(F)(F)C6)c34)c(=O)c12` (atropisomer, axis not shown; (P)) [Example 245] came in with a half-maximal cytotoxic concentration (CC50) at 4 days in data set [1] greater than 50 nM. Further, the EC50 in data set [2] came out at 0.019 nM.

Consider `CS(=O)(=O)Nc1nn(CCN2CC[C@H](F)C2)c2c(-n3c([C@H](Cc4cc(F)cc(F)c4)NC(=O)Cn4nc(C(F)F)c5c4C(F)(F)[C@@H]4C[C@H]54)nc4nc(C5CCC(F)(F)CC5)ccc4c3=O)ccc(Cl)c12` (atropisomer, axis not shown; (P)) [Example 207, N-[(1S)-1-[(3P)-3-(4-chloro-1-{2-[(3S)-3-fluoropyrrolidin-1-yl]ethyl}-3-methanesulfonamido-1H-indazol-7-yl)-7-(4,4-difluorocyclohexyl)-4-oxo-3H,4H-pyrido[2,3-d]pyrimidin-2-yl]-2-(3,5-difluorophenyl)ethyl]-2-[(2S,4R)-9-(difluoromethyl)-5,5-difluoro-7,8-diazatricyclo[4.3.0.0^2,^4]nona-1(6),8-dien-7-yl]acetamide], for which the CC50 at 4 days in data set [1] (setting [3]) is greater than 50 nM. Besides, in data set [2], the EC50 was determined as 0.013 nM.

Regarding `CO[C@@H](C)CNC(=O)Cn1nc(NS(C)(=O)=O)c2c(Cl)ccc(-n3c([C@H](Cc4cc(F)cc(F)c4)NC(=O)Cn4nc(C5CC5)c5c4C[C@@H]4C[C@H]54)nc4nc(C5CCC(F)(F)CC5)cc(C)c4c3=O)c21` (atropisomer, axis not shown; (P)) [Example 395, N-[(1S)-1-[(3P)-3-[4-chloro-3-methanesulfonamido-1-({[(2S)-2-methoxypropyl]carbamoyl}methyl)-1H-indazol-7-yl]-7-(4,4-difluorocyclohexyl)-5-methyl-4-oxo-3H,4H-pyrido[2,3-d]pyrimidin-2-yl]-2-(3,5-difluorophenyl)ethyl]-2-[(2S,4S)-9-cyclopropyl-7,8-diazatricyclo[4.3.0.0^2,^4]nona-1(6),8-dien-7-yl]acetamide], the CC50 at 4 days in data set [1] (setting [3]) is greater than 20 nM. In data set [2], the EC50 worked out at 0.034 nM.

These data come from patent US12594276B2, “Inhibitors of human immunodeficiency virus replication” (ViiV Healthcare UK (No.5) Limited, priority 2024, dated 2026).
